Assay results published in ChEMBL document CHEMBL3813655 (ACS Med Chem Lett, 2016).
Activity calls are given as the source filed them. The calls are words filed in the database; no cut-off is given here.

What was measured:
[1] = biological target: Receptor-type tyrosine-protein kinase FLT3 (Homo sapiens, UniProt P36888, D835Y)
[2] = biological target: Receptor-type tyrosine-protein kinase FLT3 (Homo sapiens, UniProt P36888, ITD)
[3] = test system: Serum; test: Protein binding in 10% human serum at 100 uM after 3 days; assay type: ADME; conditions: 72 h
[4] = test system: MOLM-13; test: Antiproliferative activity against pMMP-LucNeo fused human MOLM13 cells assessed as cell viability after 3 days by cell titer glo assay; assay type: functional, cell-based
[5] = test system: MOLM-14; test: Antiproliferative activity against human MOLM14 cells assessed as cell viability after 3 days by cell titer glo assay; assay type: functional, cell-based
[6] = test system: HEL; test: Antiproliferative activity against human HEL cells assessed as cell viability by cell titer glo assay; assay type: functional, cell-based
[7] = test system: NOMO-1; test: Antiproliferative activity against human NOMO1 cells assessed as cell viability by cell titer glo assay; assay type: functional, cell-based
[8] = organism: Homo sapiens; test: Antiproliferative activity against human P31 cells assessed as cell viability by cell titer glo assay; assay type: functional, cell-based
[9] = test system: K562; test: Antiproliferative activity against human K562 cells assessed as cell viability by cell titer glo assay; assay type: functional, cell-based
[10] = test system: PF-382; test: Antiproliferative activity against human PF382 cells assessed as cell viability by cell titer glo assay; assay type: functional, cell-based
[11] = test system: U-937; test: Antiproliferative activity against human U937 cells assessed as cell viability by cell titer glo assay; assay type: functional, cell-based
[12] = test system: K052; test: Antiproliferative activity against human K052 cells assessed as cell viability by cell titer glo assay; assay type: functional, cell-based
[13] = test system: NALM-6; test: Antiproliferative activity against human NALM6 cells assessed as cell viability by cell titer glo assay; assay type: functional, cell-based
[14] = test system: NB-4; test: Antiproliferative activity against pMMP-LucNeo fused human NB4 cells assessed as cell viability by cell titer glo assay; assay type: functional, cell-based
[15] = test system: THP-1; test: Antiproliferative activity against human THP1 cells assessed as cell viability by cell titer glo assay; assay type: functional, cell-based
[16] = Cell cycle arrest in […]-ITD mutant expressing mouse BA/F3 cells assessed accumulation at G1 phase up to 100 nM after 48 hrs by propidium iodide staining based FACS analysis; assay type: functional; conditions: BaF3
[17] = test system: BaF3; test: Induction of apoptosis in […]-ITD mutant expressing mouse BA/F3 cells up to 1000 nM after 48 hrs by Annexin V-fluos assay; assay type: functional, cell-based
[18] = Cell cycle arrest in […]-D835Y mutant expressing mouse BA/F3 cells assessed accumulation at G1 phase up to 100 nM after 48 hrs by propidium iodide staining based FACS analysis; assay type: functional; conditions: BaF3
[19] = test system: BaF3; test: Induction of apoptosis in […]-D835Y mutant expressing mouse BA/F3 cells up to 1000 nM after 48 hrs by Annexin V-fluos assay; assay type: functional, cell-based
[20] = Antiproliferative activity against human patient-derived FLT3 D835Y mutant expressing AML cells primagrafted in mouse spleen after 3 days; assay type: functional, cell-based; conditions: 72 h
[21] = Antiproliferative activity against human patient-derived FLT3 ITD mutant expressing AML cells primagrafted in mouse spleen after 3 days; assay type: functional, cell-based; conditions: 72 h
[22] = biological target: Phosphorylase b kinase gamma catalytic chain, skeletal muscle/heart isoform (Homo sapiens, UniProt Q16816); test: Inhibition of PHKGI (unknown origin) by kinomescan analysis
Chain of Phosphorylase b kinase gamma catalytic chain, skeletal muscle/heart isoform (Q16816 whole entry, canonical isoform): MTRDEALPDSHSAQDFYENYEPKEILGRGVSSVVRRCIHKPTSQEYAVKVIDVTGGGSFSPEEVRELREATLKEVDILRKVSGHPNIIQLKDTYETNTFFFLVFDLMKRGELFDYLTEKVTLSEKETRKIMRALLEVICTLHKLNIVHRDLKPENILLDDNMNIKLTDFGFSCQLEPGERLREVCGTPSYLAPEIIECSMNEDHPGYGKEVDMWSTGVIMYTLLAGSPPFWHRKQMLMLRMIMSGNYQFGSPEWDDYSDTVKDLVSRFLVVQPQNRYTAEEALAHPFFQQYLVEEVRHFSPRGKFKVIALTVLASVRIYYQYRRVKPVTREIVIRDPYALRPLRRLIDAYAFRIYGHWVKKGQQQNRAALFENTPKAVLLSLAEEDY

[23] = biological target: Dual specificity protein kinase CLK4 (Homo sapiens, UniProt Q9HAZ1); test: Inhibition of CLK4 (unknown origin) by kinomescan analysis
Chain of Dual specificity protein kinase CLK4 (Q9HAZ1 whole entry): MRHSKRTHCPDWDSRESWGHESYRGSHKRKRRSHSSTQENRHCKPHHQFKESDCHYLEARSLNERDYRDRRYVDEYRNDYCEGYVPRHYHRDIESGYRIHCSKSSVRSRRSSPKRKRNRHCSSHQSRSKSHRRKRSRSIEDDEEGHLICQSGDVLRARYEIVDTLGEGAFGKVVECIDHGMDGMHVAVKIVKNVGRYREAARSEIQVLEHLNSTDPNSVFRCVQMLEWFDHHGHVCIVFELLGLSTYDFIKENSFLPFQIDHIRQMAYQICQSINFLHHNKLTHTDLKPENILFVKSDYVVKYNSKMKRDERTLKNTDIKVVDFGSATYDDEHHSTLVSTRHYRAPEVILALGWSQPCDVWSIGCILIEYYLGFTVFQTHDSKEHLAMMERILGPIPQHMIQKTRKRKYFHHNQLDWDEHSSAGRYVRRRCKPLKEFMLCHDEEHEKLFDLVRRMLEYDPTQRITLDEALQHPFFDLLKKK

[24] = biological target: Rho-associated protein kinase 2 (Homo sapiens, UniProt O75116); test: Inhibition of ROCK2 (unknown origin) by kinomescan analysis
Chain of Rho-associated protein kinase 2 (O75116 whole entry): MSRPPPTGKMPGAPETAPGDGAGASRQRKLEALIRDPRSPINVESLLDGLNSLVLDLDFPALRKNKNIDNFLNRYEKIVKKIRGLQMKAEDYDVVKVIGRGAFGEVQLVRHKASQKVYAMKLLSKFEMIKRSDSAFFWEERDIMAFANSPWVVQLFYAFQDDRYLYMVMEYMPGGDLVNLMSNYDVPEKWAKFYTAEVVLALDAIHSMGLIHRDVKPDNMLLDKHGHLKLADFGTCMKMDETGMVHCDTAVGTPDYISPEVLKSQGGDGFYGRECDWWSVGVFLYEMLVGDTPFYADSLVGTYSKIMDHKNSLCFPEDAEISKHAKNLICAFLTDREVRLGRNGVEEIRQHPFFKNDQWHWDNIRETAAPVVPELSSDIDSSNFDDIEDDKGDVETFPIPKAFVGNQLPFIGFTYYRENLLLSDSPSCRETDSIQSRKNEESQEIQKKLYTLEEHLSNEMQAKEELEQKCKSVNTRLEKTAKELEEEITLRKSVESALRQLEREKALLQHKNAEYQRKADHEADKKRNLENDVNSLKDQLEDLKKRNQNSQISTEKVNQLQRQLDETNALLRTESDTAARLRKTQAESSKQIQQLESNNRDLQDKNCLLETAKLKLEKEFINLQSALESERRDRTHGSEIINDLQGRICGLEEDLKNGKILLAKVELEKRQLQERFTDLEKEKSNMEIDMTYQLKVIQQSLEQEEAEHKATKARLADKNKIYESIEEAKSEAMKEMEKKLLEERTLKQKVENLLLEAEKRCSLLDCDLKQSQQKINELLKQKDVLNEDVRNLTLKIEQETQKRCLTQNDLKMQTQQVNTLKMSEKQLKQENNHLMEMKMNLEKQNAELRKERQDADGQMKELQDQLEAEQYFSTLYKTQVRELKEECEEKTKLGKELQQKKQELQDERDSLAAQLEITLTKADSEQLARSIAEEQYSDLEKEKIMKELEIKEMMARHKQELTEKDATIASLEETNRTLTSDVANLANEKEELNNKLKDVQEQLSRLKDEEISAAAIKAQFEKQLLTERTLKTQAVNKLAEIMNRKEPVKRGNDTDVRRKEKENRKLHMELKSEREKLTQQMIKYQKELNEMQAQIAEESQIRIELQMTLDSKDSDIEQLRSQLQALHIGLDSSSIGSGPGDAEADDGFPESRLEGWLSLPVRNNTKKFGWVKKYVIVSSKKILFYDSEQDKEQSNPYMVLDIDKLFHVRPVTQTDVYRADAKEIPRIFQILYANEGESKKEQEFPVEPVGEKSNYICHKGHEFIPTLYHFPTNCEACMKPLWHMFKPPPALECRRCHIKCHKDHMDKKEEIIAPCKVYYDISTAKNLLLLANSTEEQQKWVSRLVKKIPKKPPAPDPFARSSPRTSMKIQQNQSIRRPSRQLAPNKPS

[25] = biological target: Dual specificity protein kinase CLK1 (Homo sapiens) (UniProt P49759); test: Inhibition of CLK1 (unknown origin) at 1 uM by kinomescan analysis
Chain of Dual specificity protein kinase CLK1 (Homo sapiens) (P49759 whole entry, looked up): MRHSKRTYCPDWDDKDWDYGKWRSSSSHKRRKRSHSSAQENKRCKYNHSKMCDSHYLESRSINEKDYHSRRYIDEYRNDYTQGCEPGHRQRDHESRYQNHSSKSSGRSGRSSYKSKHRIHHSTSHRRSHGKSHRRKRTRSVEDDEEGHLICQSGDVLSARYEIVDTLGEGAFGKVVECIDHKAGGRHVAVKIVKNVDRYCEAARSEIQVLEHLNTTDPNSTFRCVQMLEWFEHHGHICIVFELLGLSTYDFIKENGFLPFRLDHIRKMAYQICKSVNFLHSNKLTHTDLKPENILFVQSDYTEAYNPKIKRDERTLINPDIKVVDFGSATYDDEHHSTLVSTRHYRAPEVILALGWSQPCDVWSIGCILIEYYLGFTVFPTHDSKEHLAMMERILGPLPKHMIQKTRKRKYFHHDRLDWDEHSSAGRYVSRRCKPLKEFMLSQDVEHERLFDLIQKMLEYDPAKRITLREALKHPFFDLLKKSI

[26] = Half life in mouse microsomes; assay type: ADME, Microsome
[27] = test system: Plasma; test: Stability in mouse plasma after 6 hrs; assay type: ADME, cell-free
[28] = biological target: Receptor-type tyrosine-protein kinase FLT3 (Homo sapiens) (UniProt P36888); conditions: 1 uM
Description: Inhibition of wild type FLT3 (unknown origin) at 1 uM by kinomescan analysis

[29] = test system: Receptor-type tyrosine-protein kinase FLT3 (Homo sapiens), P36888 [UNDEFINED MUTATION]; conditions: 1 uM
[30] = test system: Receptor-type tyrosine-protein kinase FLT3 (Homo sapiens), P36888 [N841I]; conditions: 1 uM
Description: Inhibition of FLT3 N841I mutant (unknown origin) at 1 uM by kinomescan analysis

[31] = test system: Receptor-type tyrosine-protein kinase FLT3 (Homo sapiens), P36888 [D835V]; conditions: 1 uM
Description: Inhibition of FLT3 D835V mutant (unknown origin) at 1 uM by kinomescan analysis

[32] = test system: Receptor-type tyrosine-protein kinase FLT3 (Homo sapiens), P36888 [UNDEFINED MUTATION]; conditions: 1 uM; remark: listed apart in the source
[33] = test system: Receptor-type tyrosine-protein kinase FLT3 (Homo sapiens), P36888 [UNDEFINED MUTATION]; conditions: 1 uM; remark: listed apart in the source
[34] = test system: Receptor-type tyrosine-protein kinase FLT3 (Homo sapiens), P36888 [R834Q]; conditions: 1 uM
Description: Inhibition of FLT3 R834Q double mutant (unknown origin) at 1 uM by kinomescan analysis

CN(C)CCCn1cc(-c2ccc3c(c2)-c2[nH]c4cc(-c5cn[nH]c5)ccc4c2C3=O)cn1
IC50 [1]: 4 nM | IC50 [2]: 10 nM | PB [3]: Active | Activity [4]: Active | Activity [5]: Active | Activity [6]: inactive | Activity [7]: inactive | Activity [8]: inactive | Activity [9]: inactive | Activity [10]: inactive | Activity [11]: inactive | Activity [12]: inactive | Activity [13]: inactive | Activity [14]: inactive | Activity [15]: inactive | Activity [16]: Active | Activity [17]: Active | Activity [18]: inactive | Activity [19]: Active | IC50 [20]: 70 nM | IC50 [21]: 70 nM | IC50 [22]: 78 nM | IC50 [23]: 142 nM | IC50 [24]: 936 nM | inhibition [25]: Active | half-life [26]: 15 min | Stability [27]: Stable | inhibition [28]: > 95% | inhibition [29]: > 95% | inhibition [30]: > 95% | inhibition [31]: > 95% | inhibition [32]: > 95% | inhibition [33]: > 95% | inhibition [34]: > 95%
